Results on 4 compounds are retold here after patent US20120122780A1 (Ardea Biosciences Inc., priority 2009, published 2012).

This test has as its target T1, hURAT1 Transporter (Homo sapiens, UniProt Q96S37).
T1 construct: Full-length human URAT1 gene (SLC22Al2) was subcloned from plasmid pCMV6-XL5 (Origene) into eukaryotic expression plasmid pCMV6/Neo; expressed in transfected cells
T1 sequence (Q96S37 1-553): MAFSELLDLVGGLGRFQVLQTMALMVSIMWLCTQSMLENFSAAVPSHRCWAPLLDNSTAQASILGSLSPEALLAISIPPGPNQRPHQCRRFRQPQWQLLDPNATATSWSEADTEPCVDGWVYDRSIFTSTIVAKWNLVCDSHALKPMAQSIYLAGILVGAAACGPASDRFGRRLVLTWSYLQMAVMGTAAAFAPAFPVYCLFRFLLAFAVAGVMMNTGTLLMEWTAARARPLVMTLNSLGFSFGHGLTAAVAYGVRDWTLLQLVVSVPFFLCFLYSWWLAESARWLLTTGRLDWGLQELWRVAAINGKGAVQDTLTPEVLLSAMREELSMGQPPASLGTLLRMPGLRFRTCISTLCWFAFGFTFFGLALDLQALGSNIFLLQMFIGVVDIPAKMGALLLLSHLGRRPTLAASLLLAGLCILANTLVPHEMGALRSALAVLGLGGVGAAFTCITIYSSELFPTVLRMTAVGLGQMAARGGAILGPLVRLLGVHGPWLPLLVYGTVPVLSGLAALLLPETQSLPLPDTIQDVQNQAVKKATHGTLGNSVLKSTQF
Description: Uric Acid Uptake Assay (URAT-1 EC50). Type of test: cell-based. The conditions noted are these: HEK293/urat1 cells, C14 uric acid 40 μM, 10 minutes at room temperature. The source says:
Creation of Stable Cell Lines Expressing hURAT1 Transporter: Full-length human URAT1 gene (SLC22Al2) was subcloned from plasmid pCMV6-XL5 (Origene) into eukaryotic expression plasmid pCMV6/Neo (Origene) using Not I restriction sites. Gene sequencing confirmed the sequence of hURAT1 as outlined in Genbank (Accession #NM_144585.2). HEK293 human embryonic kidney cells (ATCC# CRL-1573) were propagated in EMEM tissue culture medium as described by ATCC in an atmosphere of 5% CO2 and 95% air. Transfections of HEK293 cells with the pCMV6/Neo/URAT1 construct were performed using L2000 transfection reagent (Invitrogen) as described by the manufacturer. After 24 h the transfected cells were split into 10 cm tissue culture plates and grown for 1 day after which the medium was replaced with fresh growth medium containing G418 (Gibco) at 0.5 mg/ml final concentration. Drug-resistant colonies were selected after approximately 8 days and then tested for ^14C-uric acid transport activity. The HEK293/urat1 cells are plated on Poly-D-Lysine Coated 96-well Plates at a density of 75,000 cells per well. Cells were grown overnight (20-26 hours) at 37° C. in an incubator. Plates were allowed to come to room temperature and media was washed out with one wash of 250 μl of Wash Buffer (125 mM Na Gluconate, 10 mM Hepes ph 7.3). Compound or vehicle is added in assay buffer with C14 Uric Acid for a final concentration of 40 μM Uric Acid with a specific activity of 54 mCi/mmol Assay Buffer is 125 mM Sodium Gluconate, 4.8 mM Potassium Gluconate, 1.2 mM Potassium phosphate, monobasic, 1.2 mM magnesium sulfate, 1.3 mM Ca Gluconate, 5.6 mM Glucose, 25 mM HEPES, pH 7.3. Plates were incubated at room temperature for 10 minutes then washed 3 times with 50 μWash Buffer and 3 times with 250 μl Wash Buffer. Microscint 20 Scintillation Fluid was added and plates were incubated overnight at 45° C. to equilibrate. Plates are then read on the TopCount Plate Reader and an EC50 value generated. (See Enomoto et al, Nature, 2002, 417, 447-451 and Anzai et al, J. Biol. Chem., 2004, 279, 45942-45950.)
Compounds prepared as described above, were examined according to the procedure described herein and EC50 values generated. The table below summarizes the activity of the compounds in the Uric Acid Uptake Assay, wherein

On to `CC(C)(Oc1nnnn1-c1cccc2ccccc12)C(=O)O` [Example 6-3], for which the EC50 is greater than 20 µM.
The result for `O=C(O)CSc1nnnn1-c1cccc2ccccc12` [6-1 (step D), 2-(1-(naphthalen-1-yl)-1H-tetrazol-5-ylthio)acetic acid] reads greater than 20 µM; that for `CCOC(=O)CSc1nnnn1-c1cccc2ccccc12` [6-1 (step C), Ethyl 2-(1-(naphthalen-1-yl)-1H-tetrazol-5-ylthio) acetate], 5 to 20 µM.
Consider `O=C(O)CSc1cnnn1-c1cccc2ccccc12` [Example 5A-1], for which the EC50 was greater than 20 µM.

By EC50 is commonly meant the midpoint of the concentration-response curve. Higher therefore signals lower potency in that assay.
